Measurements taken from patent US6472416B1, “Sulfonylphenylpyrazole compounds useful as COX-2 inhibitors” (Abbott Laboratories, priority 1999, dated 2002).

Experiments:
[1] = test system: prostaglandin biosynthesis in vivo; experiment: Rat Carrageenan Pleural Inflammation (CIP) Model; conditions: 10 mg/kg oral, 30 minutes prior to intrapleural carrageenan, lavage four hours later
Protocol: For oral administration, test compounds were suspended on the day of use in 100% polyethyleneglycol (PEG 400) with a motorized homogenizer equipped with a Teflon-coated pestle (TRI-R Instrument, Jamaica, N.Y.).
(§1) To compare the mean responses of the treatment groups, analysis of variance was applied. Percent inhibition values were determined by comparing the individual treatment mean values to the mean of the control group. Linear regression was used to estimate IC50's/ED50's in appropriate assays.
(§2) EIA reagents for prostaglandin determination were purchased from Perseptive Diagnostics, (Cambridge, Mass.). Prostaglandin E2 (PGE2) levels in lavage fluids were determined after the samples were dried under nitrogen and reconstituted with assay buffer. PGE2 levels in enzyme assays or cell culture media were measured against standards prepared in the same milieu. The immunoassays were conducted as recommended by the manufacturer. The EIA was conducted in 96 well microtiter plates (Nunc Roskilde, Denmark) and optical density was measured using a microplate reader (Vmax, Molecular Devices Corp., Menlo Park, Calif.).
Pleural inflammation was induced in male adrenalectomized Sprague-Dawley rats following the method of Vinegar et al., Fed. Proc. 1976, 35, 2447-2456. […] Eicosanoids were determined by EIA as described above. […]

[2] = molecular target: T1, recombinant human Cox-1 (r-hu Cox-1, PGHS-1) (Homo sapiens, UniProt P23219); experiment: Recombinant human PGHS-1 (r-hu Cox-1) enzyme assay, PGE2 by EIA; format: biochemical; conditions: at 100 μM; read-out: r-hu COX1 percent inhibition
T1 construct: made in house; host or cells: baculovirus/Sf9 insect cells (microsomes)
T1 sequence (P23219 24-599): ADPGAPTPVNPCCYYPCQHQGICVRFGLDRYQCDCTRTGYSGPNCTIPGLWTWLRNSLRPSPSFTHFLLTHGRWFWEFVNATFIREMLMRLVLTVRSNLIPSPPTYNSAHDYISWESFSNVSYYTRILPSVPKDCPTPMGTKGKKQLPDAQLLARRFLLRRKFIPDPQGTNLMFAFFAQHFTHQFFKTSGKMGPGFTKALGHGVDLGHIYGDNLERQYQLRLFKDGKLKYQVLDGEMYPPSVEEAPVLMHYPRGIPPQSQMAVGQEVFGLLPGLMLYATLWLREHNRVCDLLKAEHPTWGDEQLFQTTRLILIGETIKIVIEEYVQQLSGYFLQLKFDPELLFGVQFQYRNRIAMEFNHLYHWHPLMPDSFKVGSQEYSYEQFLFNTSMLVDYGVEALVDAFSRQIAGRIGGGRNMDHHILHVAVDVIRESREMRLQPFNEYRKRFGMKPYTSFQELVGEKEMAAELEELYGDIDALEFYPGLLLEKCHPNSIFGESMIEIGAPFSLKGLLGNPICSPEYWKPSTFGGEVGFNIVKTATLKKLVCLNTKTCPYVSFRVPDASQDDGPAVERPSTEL
Protocol: as §1, §2
(§3) Inhibition of prostaglandin biosynthesis in vitro was evaluated using recombinant human Cox-1 (r-hu Cox-1) and Cox-2 (r-hu Cox-2) enzyme assays. […] The reaction was allowed to run for 2.5 minutes at room temperature prior to quenching with HCl and neutralization with NaOH. PGE2 production in the presence and absence of the drug was determined by EIA analysis. The EIA was conducted in 96 well microtiter plates (Nunc Roskilde, Denmark) and optical density was measured using a microplate reader (Vmax, Molecular Devices Corp., Menlo Park, Calif.). EIA reagent for prostaglandin determination were purchased from Perseptive Diagnostics (Cambridge, Mass.). PGE2 levels were measured against standards prepared in the same milieu. The immunoassays were conducted as recommended by the manufacturer.
(§4) The compounds are designated by the Example Number. […] Values for Cox-2 inhibition that are parenthetical indicate IC50 values.

[3] = molecular target: T2, recombinant human Cox-2 (r-hu Cox-2, PGHS-2) (Homo sapiens, UniProt P35354); experiment: Recombinant human PGHS-2 (r-hu Cox-2) enzyme assay, PGE2 by EIA; format: biochemical; conditions: read-out: r-hu COX2 percent inhibition
T2 construct: made in house; host or cells: baculovirus/Sf9 insect cells (microsomes)
T2 sequence (P35354 18-604): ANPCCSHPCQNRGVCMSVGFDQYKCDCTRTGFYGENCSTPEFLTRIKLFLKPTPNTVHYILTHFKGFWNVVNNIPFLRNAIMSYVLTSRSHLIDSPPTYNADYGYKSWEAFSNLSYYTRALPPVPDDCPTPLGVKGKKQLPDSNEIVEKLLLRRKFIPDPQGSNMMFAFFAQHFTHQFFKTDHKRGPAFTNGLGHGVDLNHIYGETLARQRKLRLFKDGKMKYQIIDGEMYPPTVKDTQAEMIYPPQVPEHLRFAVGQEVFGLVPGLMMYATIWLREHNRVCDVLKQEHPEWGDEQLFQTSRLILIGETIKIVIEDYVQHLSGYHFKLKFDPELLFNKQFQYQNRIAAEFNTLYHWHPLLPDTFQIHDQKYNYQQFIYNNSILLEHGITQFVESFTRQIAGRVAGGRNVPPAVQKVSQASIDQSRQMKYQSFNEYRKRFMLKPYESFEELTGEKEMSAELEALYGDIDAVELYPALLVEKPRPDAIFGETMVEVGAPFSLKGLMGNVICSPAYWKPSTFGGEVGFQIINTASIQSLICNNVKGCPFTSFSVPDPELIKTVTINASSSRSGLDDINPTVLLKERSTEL
Protocol: as §1, §2, §3, §4

[4] = test system: IL-1β induced PGE2 production in human amnionic WISH cells; experiment: IL-1β Induced PGE2 Production in WISH Cells; format: cell-based; conditions: Homo sapiens, IL-1β 18 hour, read-out: WISH percent inhibition
Protocol: as §2
Human amnionic WISH cells were grown to 80% confluence in 48 well plates. Following removal of the growth medium and two washings with Gey's Balanced Salt Solution, 5 ng IL-1β/ml (UBI, Lake Placid, N.Y.) was added to the cells with or without test compound in DMSO (0.01% v/v) in Neuman-Tytell Serumless Medium (GIBCO, Grand Island, N.Y.). Following an 18 hour incubation to allow for the maximal induction of PGHS-2, the conditioned medium was removed and assayed for PGE2 content by EIA anylysis as described above.
WISH cell values indicate percent inhibition at the particular dose level.

Row | Structure (SMILES) | melting point [°C] | CIP Inh @ 10 mpk [1] [%] | inhibition at 100 µM [2] [%] | inhibition at 0.1 µM ([3]; at 100 nM) [%] | inhibition at 10 µM ([3]; at 10000 nM) [%] | inhibition at 0.001 µM ([4]; at 1 (nM)) [%] | inhibition at 10 pM ([4]; at 0.01 (nM)) [%] | inhibition at 1 pM ([4]; at 0.001 (nM)) [%]
1 | CS(=O)(=O)c1ccc(-c2c(-c3ccc(F)cc3)c(OCC(=O)c3ccccc3)nn2CC(=O)c2ccccc2)cc1 [Example 12, 2-[4-(4-Fluorophenyl)-5-(4-(methylsulphonyl)phenyl)-3-(2-oxo-2-phenylethoxy)-1H-pyrazol-1-yl]-1-phenylethan-1-one] | 151 to 152 | 38 | 0 |  |  |  |  | 
2 | CS(=O)(=O)c1ccc(-c2c(-c3ccc(F)cc3)c(OCC(=O)c3ccc(F)cc3)nn2CC(=O)c2ccc(F)cc2)cc1 [Example 13, 2-[4-(4-Fluorophenyl)-5-(4-(methylsulphonyl)phenyl)-3-(2-oxo-2-(4-fluorophenyl)ethoxy)-1H-pyrazol-1-yl]-1-(4-fluorophenyl)ethan-1-one] | 194 to 196 | 22 | 17 | 90 |  |  |  | 
3 | CCn1nc(OC2COCCC2=O)c(-c2ccc(F)cc2)c1-c1ccc(S(C)(=O)=O)cc1 (stereo not drawn) [Example 23, 3-[(1-Ethyl-4-(4-fluorophenyl)-5-(4-(methylsulphonyl)phenyl)-1H-pyrazol-3-yl)oxy]tetrahydro-4H-pyran-4-one] | 181 to 182 |  | 27 |  | 43 | 80 |  | 
4 | CC(=O)n1nc(OCC(=O)C(C)(C)C)c(-c2ccccc2)c1-c1ccc(S(C)(=O)=O)cc1 [Example 32, 1-[(1-Acetyl-5-(4-(methylsulphonyl)phenyl)-4-phenyl-1H-pyrazol-3-yl)oxy]-3,3-dimethylbutan-2-one] | 189 to 191 |  |  |  |  |  | 47 | 
5 | CCn1nc(OCC(=O)C(C)(C)C)c(-c2ccccc2)c1-c1ccc(S(C)(=O)=O)cc1 [Example 33, 1-[(1-Ethyl-5-(4-(methylsulphonyl)phenyl)-4-phenyl-1H-pyrazol-3-yl)oxy]-3,3-dimethylbutan-2-one] | 158 to 161 |  |  |  |  |  |  | 78
